Test results reported in ChEMBL document CHEMBL1833806, “Mapping the intestinal alpha-glucogenic enzyme specificities of starch digesting maltase-glucoamylase and sucrase-isomaltase” (Bioorg Med Chem, 2011).
pKi: −log10 of the molar value.

Legend:
[1] = Inhibition of mouse his-tagged ctMGAM-N2 expressed in Sf9 cells assessed as amount of glucose produced using maltose as a substrate after 45 mins by glucose oxidase assay
[2] = Inhibition of mouse his-tagged ctMGAM-N20 expressed in Sf9 cells assessed as amount of glucose produced using maltose as a substrate after 45 mins by glucose oxidase assay
[3] = Inhibition of human ntMGAM expressed in Drosophila S2 cells assessed as amount of glucose produced using maltose as a substrate after 45 mins by glucose oxidase assay; type: cell-based
[4] = Inhibition of mouse his-tagged ctSI expressed in Sf9 cells assessed as amount of glucose produced using maltose as a substrate after 45 mins by glucose oxidase assay
[5] = Inhibition of human ntSI expressed in Drosophila S2 cells assessed as amount of glucose produced using maltose as a substrate after 45 mins by glucose oxidase assay; type: cell-based
[6] = Selectivity ratio of Ki for human ntMGAM to Ki for mouse ctMGAM-N2
[7] = Selectivity ratio of Ki for human ntSI to Ki for mouse ctMGAM-N2
Mus musculus [8] = organism: Mus musculus; test: Selectivity ratio of Ki for mouse ctSI to Ki for mouse ctMGAM-N2
[9] = Selectivity ratio of Ki for human ntMGAM to Ki for mouse ctMGAM-N20
[10] = Selectivity ratio of Ki for human ntSI to Ki for mouse ctMGAM-N20
Mus musculus [11] = organism: Mus musculus; test: Selectivity ratio of Ki for mouse ctSI to Ki for mouse ctMGAM-N20
[12] = Selectivity ratio of Ki for human ntMGAM to Ki for mouse ctSI
[13] = Selectivity ratio of Ki for human ntSI to Ki for mouse ctSI
Mus musculus [14] = organism: Mus musculus; test: Selectivity ratio of Ki for mouse ctMGAM-N20 to Ki for mouse ctMGAM-N2
[15] = Activity of mouse his-tagged ctMGAM-N2 expressed in Sf9 cells assessed as amount of glucose produced after 45 mins by glucose oxidase assay
[16] = Activity of mouse his-tagged ctMGAM-N20 expressed in Sf9 cells assessed as amount of glucose produced after 45 mins by glucose oxidase assay
[17] = Activity of mouse his-tagged ctSI expressed in Sf9 cells assessed as amount of glucose produced after 45 mins by glucose oxidase assay
[18] = Activity of human ntSI expressed in Drosophila S2 cells assessed as amount of glucose produced after 45 mins by glucose oxidase assay; type: cell-based
[19] = Activity of human ntMGAM expressed in Drosophila S2 cells assessed as amount of glucose produced after 45 mins by glucose oxidase assay; type: cell-based
Mus musculus [20] = organism: Mus musculus; test: Ratio of Km for mouse ctMGAM-N20 to Km for mouse ctMGAM-N2
[21] = Activity of mouse his-tagged ctMGAM-N2 expressed in Sf9 cells assessed as amount of glucose produced using maltose as a substrate after 45 mins by glucose oxidase assay
[22] = Activity of mouse his-tagged ctMGAM-N20 expressed in Sf9 cells assessed as amount of glucose produced using maltose as a substrate after 45 mins by glucose oxidase assay
Homo sapiens = organism: Homo sapiens; test: Selectivity ratio of Ki for human ntMGAM to Ki for human ntSI
Mus musculus [23] = organism: Mus musculus; test: Selectivity ratio of Ki for mouse ctMGAM-N2 to Ki for mouse ctMGAM-N20
Mus musculus [24] = organism: Mus musculus; test: Selectivity ratio of Ki for mouse ctMGAM-N2 to Ki for mouse ctSI

SMILES | Ratio Ki [6] | Ratio Ki [9] | Ratio Ki [12] | pKi [1] | pKi [2] | pKi [3] | pKi [4] | pKi [5] | further results
O=S(=O)([O-])O[C@@H](CO)[C@H](O)C[Se+]1C[C@@H](O)[C@H](O)[C@H]1CO (stereo not given in full) [BLINTOL] | 10 |  |  | 7.74 | 7.89 | 6.31 | 7.54 | 6.80 | Ratio Ki [7]: 10; Ratio Ki (Mus musculus [8]): 10; Ratio Ki (Mus musculus [14]): 10
OC[C@@H]1[C@@H](O)[C@H](O)C[S+]1C[C@@H](O)[C@@H](O)[C@H](O)[C@H](O)[C@@H](O)CO (stereo not given in full) [DE-O-SULFONATED KOTALANOL] |  |  |  | 7.59 | 7.11 | 7.52 | 7.59 | 7.92 | 
O=S(=O)([O-])O[C@@H]([C@H](O)[C@H](O)[C@@H](O)CO)[C@H](O)C[S+]1C[C@@H](O)[C@H](O)[C@H]1CO (stereo not given in full) [KOTALANOL] |  |  |  | 7.19 | 7.04 | 6.72 | 7.38 | 6.22 | 
OC[C@H]1O[C@H](O[C@H]2[C@H](O)[C@@H](O)[C@H](O)O[C@@H]2CO)[C@H](O)[C@@H](O)[C@@H]1O [MALTOSE] |  |  |  |  |  |  |  |  | Km [15]: 1590 µM; Km [16]: 1910 µM; Km [17]: 2500 µM; Km [18]: 7100 µM; Km [19]: 4300 µM; Ratio (Mus musculus [20]): 4; Km [4]: 2500 µM; Km [21]: 1590 µM; Km [22]: 1910 µM

The next lines start with results.

Ratio Ki [6] | Ratio Ki [9] | Ratio Ki [12] | SMILES | pKi [1] | pKi [2] | pKi [3] | pKi [4] | pKi [5] | further results
1000 | 1000 | 100 | C[C@H]1O[C@H](O[C@H]2[C@H](O)[C@@H](O)[C@@H](O[C@H]3[C@H](O)[C@@H](O)C(O)O[C@@H]3CO)O[C@@H]2CO)[C@H](O)[C@@H](O)[C@@H]1N[C@H]1C=C(CO)[C@@H](O)[C@H](O)[C@H]1O (stereo not given in full) [ACARBOSE] | 8.05 | 7.55 | 4.21 | 6.61 | 4.85 | Ratio Ki [7]: 1000; Ratio Ki (Mus musculus [8]): 1000; Ratio Ki [10]: 1000; Ratio Ki (Mus musculus [11]): 1000; Ratio Ki [13]: 100
4 | 4 | 4 | OCCN1C[C@H](O)[C@@H](O)[C@H](O)[C@H]1CO [MIGLITOL] | 6.68 | 6.64 | 6.00 | 6.89 | 6.83 | Ratio Ki (Homo sapiens): 4
 | 5 | 5 | O=S(=O)([O-])O[C@@H](CO)[C@H](O)C[S@+]1C[C@@H](O)[C@H](O)[C@H]1CO [SALACINOL] | 6.67 | 7.24 |  | 7.33 | 6.56 | Ratio Ki [10]: 5; Ratio Ki [13]: 5; Ratio Ki (Mus musculus [23]): 4; Ratio Ki (Mus musculus [24]): 5
